pIC50, pKd: −log10 of the molar value. Marks after values point to notes of the source that are not given here.
Columns and labels:
[1] = target: human RORγt ligand binding domain (RORγt LBD) (Homo sapiens (Human), UniProt P51449); assay: RORγt ThermoFluor assay
From the text: ThermoFluor® is a fluorescence based assay that estimates ligand binding affinities by measuring the effect of a ligand on protein thermal stability (Pantoliano, M. W., Petrella, E. C., Kwasnoski, J. D., Lobanov, V. S., Myslik, J., Graf, E., Carver, T., Asel, E., Springer, B. A., Lane, P., and Salemme, F. R. (2001) High-density miniaturized thermal shift assays as a general strategy for drug discovery. J Biomol Screen 6, 429-40, and Matulis, D., Kranz, J. K., Salemme, F. R., and Todd, M. J. (2005) Thermodynamic stability of carbonic anhydrase: measurements of binding affinity and stoichiometry using ThermoFluor. Biochemistry 44, 5258-66). This approach is applicable to a wide variety of systems, and rigorous in theoretical interpretation through quantitation of equilibrium binding constants (KD).
The shift in the melting point described as a ΔTm is proportional to the concentration and affinity of the ligand. The compound potency may be compared as a rank order of either values at a single compound concentration or in terms of KD values, estimated from concentration response curves.
RORγt ThermoFluor® Assay Construct
For the RORγt construct used in the ThermoFluor® assay, numbering for the nucleotide sequences was based on the reference sequence for human RORγt, transcript variant 2, NCBI Accession: NM 001001523.1 (SEQ ID NO:1). Nucleotides 850-1635 (SEQ ID NO:2) coding for the wild type human RORγt ligand binding domain (RORγt LBD) were cloned into the pHIS1 vector, a modified pET E. coli expression vector (Accelagen, San Diego), containing an in-frame N-terminal His-tag and a TurboTEV protease cleavage site (ENLYFQG, SEQ ID NO:3) upstream of the cloned insert sequence. The amino acid sequence for the RORγt construct used in the Thermofluor® assay is shown as SEQ ID NO:4.
ThermoFluor® experiments were carried out using instruments owned by Janssen Research and Development, L.L.C. through its acquisition of 3-Dimensional Pharmaceuticals, Inc. 1,8-ANS (Invitrogen) was used as a fluorescent dye. Protein and compound solutions are dispensed into black 384-well polypropylene PCR microplates (Abgene) and overlayed with silicone oil (1 μL, Fluka, type DC 200) to prevent evaporation.
Bar-coded assay plates are robotically loaded onto a thermostatically controlled PCR-type thermal block and then heated at a typical ramp-rate of 1° C./min for all experiments. Fluorescence was measured by continuous illumination with UV light (Hamamatsu LC6) supplied via fiber optic and filtered through a band-pass filter (380-400 nm; >6 OD cutoff). Fluorescence emission of the entire 384-well plate was detected by measuring light intensity using a CCD camera (Sensys, Roper Scientific) filtered to detect 500±25 nm, resulting in simultaneous and independent readings of all 384 wells. Images were collected at each temperature, and the sum of the pixel intensity in a given area of the assay plate was recorded versus temperature. Reference wells contained RORγt without compounds, and the assay conditions were as follows:
Project compounds were arranged in a pre-dosed mother plate (Greiner Bio-one) wherein compounds are serially diluted in 100% DMSO by 1:2 from a high concentration of 10 mM over 12 columns within a series (column 12 is a reference well containing DMSO, no compound). The compounds were robotically dispensed directly into assay plates (1×=46 nL) using a Hummingbird capillary liquid handling instrument (Digilab). Following compound dispense, protein and dye in buffer was added to achieve the final assay volume of 3 μL, followed by 1 μL of silicone oil.
The binding affinity was estimated as described previously (Matulis, D., Kranz, J. K., Salemme, F. R., and Todd, M. J. (2005) Thermodynamic stability of carbonic anhydrase: measurements of binding affinity and stoichiometry using ThermoFluor®. Biochemistry 44, 5258-66) using the following thermodynamic parameters of protein unfolding:
Reference RORγt Tm: 47.8° C.

[2] = target: full-length human RORγt (GAL4-DBD-RORγt fusion) in HEK293T cells (Homo sapiens (Human), UniProt P51449); assay: RORγt (full-length human) reporter assay, conditions A or B; type: cell-based; settings: for pIC50: HEK293T cells, read-out: RORγt (FL) Reporter Assay A or B, IC50; for inhibition at 3 µM / RORγt (FL) Reporter Assay A or B, % inhibition: 3 μM compound concentration (footnote *)
Procedure: RORγt (Full-Length Human) Reporter Assay:
(§1) HEK293T cells were plated at 35,000 per well in 96-well plate in medium of DMEM with 10% FBS. […] After overnight (16 to 20 hours) incubation, media were removed and cells were lysed with 50 μL Glo Lysis Buffer (Promega) for 10-15 minutes followed by 10 minute incubation with 50 μL Dual Glo reagent (Promega) at room temperature. Firefly luciferase luminescence was measured using a BMG Pherastar plate reader. To each well, 50 μL Stop and Glo reagent was added and incubated for 10 minutes at room temperature. Renilla luminescence was measured using a BMG Pherastar plate reader. To calculate the effect of compounds on RORγt activity, firefly values were normalized against values of DMSO only and values of reference compound at saturating concentration, then further normalized against Renilla signals. IC50s were generated by plotting final Renilla normalized data against compound concentration and percent inhibition was calculated against DMSO control.
as §1, with “at 8750 cells” for “at 35,000”, “in 384-well” for “in 96-well”, “with 20” for “with 50”, “well, 20” for “well, 50”

[3] = HEK-293T, read-out: RORγt (FL) Reporter Assay A or B, % inhibition

human RORγt ligand binding domain (RORγt LBD), sequence (P51449 other isoform, or with tags, fused parts or gaps): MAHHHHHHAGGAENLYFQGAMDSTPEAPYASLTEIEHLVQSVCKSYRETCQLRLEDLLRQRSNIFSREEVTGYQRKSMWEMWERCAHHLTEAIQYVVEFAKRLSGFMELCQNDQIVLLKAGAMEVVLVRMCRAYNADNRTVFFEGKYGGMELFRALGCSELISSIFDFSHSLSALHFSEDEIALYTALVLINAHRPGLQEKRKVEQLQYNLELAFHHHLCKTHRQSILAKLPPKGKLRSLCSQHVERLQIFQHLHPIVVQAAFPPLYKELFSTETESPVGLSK
full-length human RORγt (GAL4-DBD-RORγt fusion) in HEK293T cells, sequence (P51449 other isoform, or with tags, fused parts or gaps): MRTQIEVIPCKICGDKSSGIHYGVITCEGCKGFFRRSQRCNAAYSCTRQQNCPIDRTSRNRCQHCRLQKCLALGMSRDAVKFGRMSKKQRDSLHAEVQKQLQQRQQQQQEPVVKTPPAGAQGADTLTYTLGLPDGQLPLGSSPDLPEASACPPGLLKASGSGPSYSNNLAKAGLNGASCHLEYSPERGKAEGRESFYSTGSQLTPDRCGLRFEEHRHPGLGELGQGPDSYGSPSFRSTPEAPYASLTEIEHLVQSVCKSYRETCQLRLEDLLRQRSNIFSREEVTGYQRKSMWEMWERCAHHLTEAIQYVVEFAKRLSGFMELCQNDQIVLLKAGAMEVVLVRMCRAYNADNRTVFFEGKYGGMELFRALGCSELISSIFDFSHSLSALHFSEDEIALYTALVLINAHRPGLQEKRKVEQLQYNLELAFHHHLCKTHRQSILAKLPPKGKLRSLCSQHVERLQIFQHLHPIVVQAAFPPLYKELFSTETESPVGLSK

Structure (SMILES) | pKd [1] | pIC50 [2] | inhibition at 3 µM [2, 3] [%] | inhibition at 1 µM ([2]; HEK-293T, 1 μM compound concentration (footnote ***), read-out: RORγt (FL) Reporter Assay A or B, % inhibition) [%] | RORγt (FL) Reporter Assay A or B, % inhibition [2]
CCn1nc(C(=O)NC[C@@]2(O)CC[C@H](S(C)(=O)=O)C[C@@H]2O)c(Cl)c1-c1cnc(CC(C)(C)C(F)F)cc1OC(F)F (stereo in doubt) [Example 39, 4-Chloro-5-(6-(3,3-difluoro-2,2-dimethylpropyl)-4-(difluoromethoxy)pyridin-3-yl)-N-(((1S*,2S*,4S*)-1,2-dihydroxy-4-(methylsulfonyl)cyclohexyl)methyl)-1-ethyl-1H-pyrazole-3-carboxamide] | 7.40 | 6.14 | 72 |  | 
CCn1nc(C(=O)NC[C@]2(O)CC[C@@H](S(C)(=O)=O)C[C@H]2O)c(Cl)c1-c1cnc(CC(C)(C)C(F)F)cc1OC(F)F (stereo in doubt) [Example 40, 4-Chloro-5-(6-(3,3-difluoro-2,2-dimethylpropyl)-4-(difluoromethoxy)pyridin-3-yl)-N-(((1R*,2R*,4R*)-1,2-dihydroxy-4-(methylsulfonyl)cyclohexyl)methyl)-1-ethyl-1H-pyrazole-3-carboxamide] | 7.40 | 6.24 | 84 |  | 
CCn1nc(C(=O)NC[C@@]2(O)CC[C@H](S(C)(=O)=O)C[C@@H]2O)c(C)c1-c1cnc(CC(C)(C)C(F)F)cc1OC(F)F (stereo in doubt) [Example 43, 5-(6-(3,3-Difluoro-2,2-dimethylpropyl)-4-(difluoromethoxy)pyridin-3-yl)-N-(41S*,2S*,4S*)-1,2-dihydroxy-4-(methylsulfonyl)cyclohexyl)methyl)-1-ethyl-4-methyl-1H-pyrazole-3-carboxamide] | 7.18 | 6.49 |  | 84 | 
CCn1nc(C(=O)NC[C@]2(O)CC[C@@H](S(C)(=O)=O)C[C@H]2O)c(C)c1-c1cnc(CC(C)(C)C(F)F)cc1OC(F)F (stereo in doubt) [Example 44, 5-(6-(3,3-Difluoro-2,2-dimethylpropyl)-4-(difluoromethoxy)pyridin-3-yl)-N-(((1R*,2R*,4R*)-1,2-dihydroxy-4-(methylsulfonyl)cyclohexyl)methyl)-1-ethyl-4-methyl-1H-pyrazole-3-carboxamide] | 7.16 | 6.05 | 85 |  | 
CCn1nc(C(=O)NC[C@]2(O)CC[C@@H](S(C)(=O)=O)C[C@H]2O)c(Cl)c1-c1ccc(CC(C)(C)C(F)(F)F)nc1OC(F)F (stereo in doubt) [Example 47, 4-Chloro-5-(2-(difluoromethoxy)-6-(3,3,3-trifluoro-2,2-dimethylpropyl)pyridin-3-yl)-N-(((1R*,2R*,4R*)-1,2-dihydroxy-4-(methylsulfonyl)cyclohexyl)methyl)-1-ethyl-1H-pyrazole-3-carboxamide] | 8.77 | 7.36 | 95 |  | 
CCn1nc(C(=O)NC[C@@]2(O)CC[C@H](S(C)(=O)=O)C[C@@H]2O)c(Cl)c1-c1ccc(CC(C)(C)C(F)(F)F)nc1OC(F)F (stereo in doubt) [Example 48, 4-Chloro-5-(2-(difluoromethoxy)-6-(3,3,3-trifluoro-2,2-dimethylpropyl)pyridin-3-yl)-N-(((1S*,2S*,4S*)-1,2-dihydroxy-4-(methylsulfonyl)cyclohexyl)methyl)-1-ethyl-1H-pyrazole-3-carboxamide] | 8.70 | 8.24 | 101 |  | 
CCn1nc(C(=O)NC[C@]2(O)CC[C@@H](S(N)(=O)=O)CC2)c(Cl)c1-c1cnc(CC(C)(C)C(F)(F)F)cc1OC(F)F [Example 1, 4-Chloro-5-(4-(difluoromethoxy)-6-(3,3,3-trifluoro-2,2-dimethylpropyl)pyridin-3-yl)-1-ethyl-N-(((1s,4s)-1-hydroxy-4-sulfamoylcyclohexyl)methyl)-1H-pyrazole-3-carboxamide] | 7.96 | 6.96 | 116 |  | 
CCn1nc(C(=O)NC[C@]2(O)CC[C@@H](S(N)(=O)=O)CC2)c(C)c1-c1cnc(CC(C)(C)C(F)(F)F)cc1OC(F)F [Example 2, 5-(4-(Difluoromethoxy)-6-(3,3,3-trifluoro-2,2-dimethylpropyl)pyridin-3-yl)-1-ethyl-N-(((1s,4s)-1-hydroxy-4-sulfamoylcyclohexyl)methyl)-4-methyl-1H-pyrazole-3-carboxamide] | 7.54 | 6.03 | 104 |  | 
CCn1nc(C(=O)NC[C@H]2CC[C@H](S(=O)(=O)NC(C)=O)CC2)c(Cl)c1-c1cnc(CC(C)(C)C(F)(F)F)cc1OC(F)F [Example 5, N-(((1r,4r)-4-(N-acetylsulfamoyl)cyclohexyl)methyl)-4-chloro-5-(4-(difluoromethoxy)-6-(3,3,3-trifluoro-2,2-dimethylpropyl)pyridin-3-yl)-1-ethyl-1H-pyrazole-3-carboxamide] | 8.06 | 6.37 |  |  | 79* %
CCn1nc(C(=O)NC[C@H]2CC[C@H](S(=O)(=O)NC(=O)NC)CC2)c(Cl)c1-c1cnc(CC(C)(C)C(F)(F)F)cc1OC(F)F [Example 6, 4-Chloro-5-(4-(difluoromethoxy)-6-(3,3,3-trifluoro-2,2-dimethylpropyl)pyridin-3-yl)-1-ethyl-N-(((1r,4r)-4-(N-(methylcarbamoyl)sulfamoyl)cyclohexyl)methyl)-1H-pyrazole-3-carboxamide] | 8.72 | 6.57 |  |  | 87* %
CCn1nc(C(=O)NC[C@H]2CC[C@H](S(=O)(=O)NC(N)=O)CC2)c(Cl)c1-c1cnc(CC(C)(C)C(F)(F)F)cc1OC(F)F [Example 7, N-(((1r,4r)-4-(N-carbamoylsulfamoyl)cyclohexyl)methyl)-4-chloro-5-(4-(difluoromethoxy)-6-(3,3,3-trifluoro-2,2-dimethylpropyl)pyridin-3-yl)-1-ethyl-1H-pyrazole-3-carboxamide] | 8.54 | 6.62 |  |  | 100* %

— patent US11034658B2, “Pyridinyl pyrazoles as modulators of RORγT” (Janssen Pharmaceutica NV, priority 2018, dated 2021)
